Reference: patent publication US7537765B2, “Inhibition of HIV-1 replication by disruption of the processing of the viral capsid-spacer peptide 1 protein” (priority 2003, dated 2009)
Entries after “also recorded” stand apart in the source; their conditions may differ. Read-outs that look alike come from different tables or passages of the source.

How the values were obtained:
[1] = test system: primary Clade B HIV-1 isolates; assay: Virus inhibition assay, primary HIV-1 isolates in PBMC, p24 endpoint; assay type: cell-based
Protocol: (§1) A robust virus inhibition assay was used to evaluate the anti-viral activity of DSB against primary HIV-1 isolates propagated in PMBC. Briefly, serial dilutions of DSB were made in medium into 96-well tissue culture plates. 25-250 TCID50 of virus and 5×10^5 PHA-stimulated PBMCs were added to each well. On days 1, 3 and 5 post-infection, media was removed from each well and replaced with fresh media containing DSB at the appropriate concentration. On day 7 post-infection, culture supernatant was removed from each well for p24 detection of virus replication and 50% inhibitory concentrations (IC50) were calculated by standard methods.

PHA-stimulated PBMC = assay: Toxicity in PHA-stimulated PBMC, XTT method; assay type: cell-based; settings: 7 days
Protocol: Toxicity of DSB was analyzed by incubating with PHA-stimulated PBMC for 7 days at a range of concentrations, then determining cell viability using the XTT method. The 50% cytotoxic concentration was >30 μM, corresponding to an in vitro therapeutic index of approximately 5000.

HIV = settings: chronically-infected cells, Kanamoto et al.; cited from earlier work
HIV-1 protease [2] = biological target: T1, HIV-1 protease (Human immunodeficiency virus type 1 group M subtype B, UniProt P12497); assay: Cell-free fluorometric protease assay, synthetic peptide substrate; assay type: biochemical; set-up: DSB had no effect on HIV-1 protease function using a cell-free fluorometric assay; settings: concentrations up to 50 μg/mL
Protocol: It was previously determined that DSB had no effect on HIV-1 protease function using a cell-free fluorometric assay that characterized enzyme activity by following the cleavage of a synthetic peptide substrate. […] As a result of the observation that DSB blocks virus replication at a late step, studies were also performed using a recombinant form of the Gag protein, which is a more relevant system than the synthetic peptide substrate used in the initial assays.

SIVmac251 = assay: Gag processing (western blot) in chronically infected H9/SIVmac251 cells; assay type: cell-based, SIV
Protocol: FIG. 2. […] Gag proteins were visualized using HIV-Ig (HIV-1) or monkey anti-SIVmac251 serum (HIV-2 and SIV; NIH AIDS Research and Reference Reagent Program).
In order to better define DSB's mechanism of action, a detailed examination was undertaken of the virus produced from HIV-1-infected cell lines treated with DSB. Briefly, H9 cells chronically infected with the HIV-1IIIB isolate were treated with DSB at 1 μg/mL for a period of 48 hrs. Indinavir was used as a control. At the 48 hr time-point, spent media was removed and fresh media containing compound was added. At 24, 48 and 72 hrs post fresh compound addition, both cells and supernatant were recovered for analysis. The level of virus in the culture supernatant was determined and western blots were used to characterize viral protein production in both cell-associated and cell-free virus. […] This defect took the form of an additional band in the western blots corresponding to p25 (FIG. 2). This p25 band results from the incomplete processing of the capsid CA-SP1 precursor. […] As discussed above, mutations at the p25 to p24 cleavage site that prevent processing are associated with defects in viral maturation and infectivity (Wiegers K. et al., J. Virol. 72:2846-54 (1998)).

HIV-1 protease [3] = biological target: T1, HIV-1 protease; assay type: biochemical; settings: recombinant Gag, 50 μg/mL
[4] = test system: HIV-1 isolates selected for resistance to DSB; assay: Virus replication assay in H9 cells (p24 ELISA), DSB-resistant and parental viruses; assay type: cell-based
Protocol: Virus stocks derived as described above were further analyzed both phenotypically and genotypically to characterize the nature of their drug-resistance. The resistance of the viruses to 3-O-(3′,3′-dimethylsuccinyl)-betulinic acid (DSB) was determined in virus replication assays. Briefly, the virus stocks were first titered in H9 cells by quantitating the levels of p24 (by ELISA) in cultures 8 days after infection with serial 4-fold dilutions of virus. Virus input was then normalized for a second assay in which each virus is cultured for 8 days in the presence of serial 4-fold dilutions of drug. The IC50 for each virus was determined as the dilution of drug that reduced the p24 endpoint level by 50% as compared to the no-drug control. […] In a subsequent series of experiments, the A364V mutation was engineered into the HIV-1 NL4-3 proviral DNA, which was subsequently transfected into HeLa cells. Resulting virus was collected and used to test the activity of DSB in a viral replication assay, as described above.

[5] = test system: drug resistant HIV-1 isolates; assay: Drug resistant HIV-1 isolates in fresh PBMC, p24 endpoint; assay type: cell-based; settings: read-out: IC50
Protocol: as §1, with “concentration.” for “concentration. On day 7 post-infection, culture supernatant was removed from each well for p24 detection of virus replication and 50% inhibitory concentrations (IC50) were calculated by standard methods.”
The activity of DSB was tested against a panel of HIV-1 isolates resistant to approved drugs. These viruses were obtained from the NIH AIDS Research and Reference Reagent Program. Assays were performed using virus propagated in PBMCs with a p24 endpoint (above), or using cell line targets (MT-2 cells) and a cell killing endpoint. The MT-2 assay format was as follows. Serial dilutions of DSB, or each approved drug, were prepared in 96 well plates. To each sample well was added media containing MT-2 cells at 3×10^5 cells/mL and virus inoculum at a concentration necessary to result in 80% killing of the cell targets at 5 days post-infection (PI). On day 5 post-infection, virus-induced cell killing was determined by the XTT method and the inhibitory activity of the compound was determined.

C=C(C)[C@@H]1CC[C@]2(C(=O)O)CC[C@]3(C)[C@H](CC[C@@H]4[C@@]5(C)CC[C@H](OC(=O)CC(C)(C)C(=O)O)C(C)(C)[C@@H]5CC[C@]43C)[C@@H]12 [DSB, 3-O-(3′,3′-dimethylsuccinyl)betulinic acid]
IC50 ([1]; isolate 92HT599, co-receptor X4, PBMC, p24 day 7, read-out: IC50): 9.8 nM | IC50 ([1]; isolate 92US723, co-receptor R5/X4, PBMC, p24 day 7, read-out: IC50): 4.6 nM | IC50 ([1]; isolate 3401N*, co-receptor R5/X4, PBMC, p24 day 7, read-out: IC50): 12 nM | IC50 ([1]; isolate 19101N*, co-receptor R5, PBMC, p24 day 7, read-out: IC50): 3.8 nM | IC50 ([1]; isolate 22101N*, co-receptor R5/X4, PBMC, p24 day 7, read-out: IC50): 2.6 nM | IC50 ([1]; isolate BZ167, co-receptor X4, PBMC, p24 day 7, read-out: IC50): 4 nM | IC50 ([1]; isolate US1, co-receptor R5, PBMC, p24 day 7, read-out: IC50): 5.6 nM | IC50 ([1]; mean over the panel of primary isolates, read-out: IC50, Mean): 6.1 nM | 50% cytotoxic concentration (PHA-stimulated PBMC): > 30 µM | release of virus (HIV): inhibits release of virus from chronically-infected cells | effect on HIV-1 protease function (HIV-1 protease [2]): no effect on protease function | antiviral activity (SIVmac251; SIV): lack of antiviral activity | Gag processing (SIVmac251; SIV chronically infected cell line, 1 μg/mL): normal Gag processing | effect on protease-mediated Gag protein processing (HIV-1 protease [3]): did not disrupt protease-mediated Gag protein processing; also recorded: does not disrupt the activity of HIV-1 protease | IC50 ([4]; NL4-3 with engineered A364V mutation (DSB-resistant virus)): 100 nM | IC50 ([4]; two independently derived DSB-selected virus stocks): > 2000 nM | IC50 ([4]; virus cultured in parallel in the absence of drug): 20 nM | IC50 ([4]; wild-type NL4-3): 10 nM | IC50 ([5]; isolate 1, NRTI-resistant, K70R T215Y/F, R5/X4): 4.4 nM | IC50 ([5]; isolate 2, NRTI-resistant, K70R T215Y/F, R5/X4): 4.2 nM | IC50 ([5]; isolate 5, Protease-resistant, V82A, X4): 5.6 nM | IC50 ([5]; isolate 6, Protease-resistant, I84V, X4): 5.5 nM | IC50 ([5]; isolate 7, Protease-resistant, L10R/M46I/L63P/V82T/I84V, X4): 12.9 nM
